In patent publication US9957297B2, “Template-fixed peptidomimetics as inhibitors of FPR1” (POLYPHOR AG, priority 2011, dated 2018):
Where a SMILES comes first, the peptide text is derived from it. Bridges are numbered along the chain shown (N, C = ends). [ ]: non-standard residue; d: D form. Pro(4R-NH2) = N[C@H]1CN[C@H](C(=O)O)C1

Target: T1, FPR1 (Homo sapiens, UniProt P21462)
T1 construct: host or cells: CHO (PathHunter CHO-FPR1 β-arrestin cells)
T1 sequence (P21462 1-350): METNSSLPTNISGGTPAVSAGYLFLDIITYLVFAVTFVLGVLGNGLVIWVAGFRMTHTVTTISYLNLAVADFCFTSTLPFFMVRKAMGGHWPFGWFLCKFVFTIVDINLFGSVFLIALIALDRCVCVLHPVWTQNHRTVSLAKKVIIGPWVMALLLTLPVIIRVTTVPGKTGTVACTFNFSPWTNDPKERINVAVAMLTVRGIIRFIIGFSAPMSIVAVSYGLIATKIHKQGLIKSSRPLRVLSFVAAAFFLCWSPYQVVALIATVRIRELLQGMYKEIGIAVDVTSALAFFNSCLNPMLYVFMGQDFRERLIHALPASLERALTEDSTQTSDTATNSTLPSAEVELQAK
Assay: FPR1 β-arrestin recruitment assay (PathHunter CHO-FPR1, antagonistic mode)
Assay type: cell-based
Settings: CHO FPR1 β-arrestin cells; antagonistic assay vs reference agonist fMLF at its EC80; 60 min preincubation
Protocol: 2.2 FPR1 β-Arrestin Recruitment Assay
The PathHunter CHO—FPR1 (DiscoverX) assay was performed according to the manufacturer's protocol. In brief, CHO FPR1 β-arrestin cells were seeded at a density of 9000 cells per well in 20 μl of Ham's F12 medium (Invitrogen) in black 384-well culture plates and incubated overnight at 37° C. in a humidified atmosphere with 5% CO2. The next day, serial dilutions of the β-hairpin peptidomimetics of this invention have been prepared in DMSO and subsequently diluted in HBSS buffer supplemented with 20 mM Hepes and 0.1% BSA.
For antagonistic assay, 5 μl of compound solution or buffer was added to the cells with a final DMSO concentration of 0.5% (v/v). The plate was incubated for 60 min at 37° C. with 5% CO2 before addition of […] of the reference agonist fMLF peptide (Sigma-Aldrich) at its EC80 concentration. After 90 min of incubation at 37° C. with 5% CO2, 15 μl of beta-Glo detection reagent (Promega) were added. Reaction was developed for 20 min at room temperature and chemiluminescence was measured with a Victor2V (Perkin Elmer) luminescence reader.

CC[C@H](C)[C@@H]1NC(=O)[C@H]([C@@H](C)O)NC(=O)[C@H](Cc2c[nH]c3ccccc23)NC(=O)[C@H]2CCCN2C(=O)CNC(=O)[C@H](Cc2c[nH]cn2)NC(=O)[C@@H]2CSSC[C@H](NC1=O)C(=O)N[C@@H](Cc1ccc(O)cc1)C(=O)N[C@@H](CCC(=O)O)C(=O)N[C@@H](CCCCN)C(=O)N1CCC[C@@H]1C(=O)N1CCC[C@H]1C(=O)N[C@@H](CC(=O)O)C(=O)N[C@@H](Cc1c[nH]cn1)C(=O)N[C@@H](CCCCN)C(=O)N2 [compound 66, cyclo(-Asp-His-Lys-Cys-His-Gly-^DPro-Trp-Thr-Ile-Cys-Tyr-Glu-Lys-^DPro-Pro-)] (cyclo(DHKCHG[dP]WTICYEK[dP]P); disulfide 4-11)
IC50: 177 ± 28 nM

CC[C@H](C)[C@@H]1NC(=O)[C@H]([C@@H](C)O)NC(=O)[C@H](Cc2c[nH]c3ccccc23)NC(=O)[C@@H](C)NC(=O)CNC(=O)[C@H](Cc2c[nH]cn2)NC(=O)[C@@H]2CSSC[C@H](NC1=O)C(=O)N[C@@H](Cc1ccc(O)cc1)C(=O)N[C@@H](CCC(=O)O)C(=O)N[C@@H](CCCCN)C(=O)N1CCC[C@@H]1C(=O)N1CCC[C@H]1C(=O)N[C@@H](Cc1ccc(O)cc1)C(=O)N[C@@H](Cc1c[nH]cn1)C(=O)N[C@@H](CCCCN)C(=O)N2 [compound 71, cyclo(-Tyr-His-Lys-Cys-His-Gly-^DAla-Trp-Thr-Ile-Cys-Tyr-Glu-Lys-^DPro-Pro-)] (cyclo(YHKCHG[dA]WTICYEK[dP]P); disulfide 4-11)
IC50: 77 ± 4 nM

CC[C@H](C)[C@@H]1NC(=O)[C@H]([C@@H](C)O)NC(=O)[C@H](Cc2c[nH]c3ccccc23)NC(=O)[C@H]2CCCN2C(=O)CNC(=O)[C@H](Cc2c[nH]cn2)NC(=O)[C@@H]2CSSC[C@H](NC1=O)C(=O)N[C@@H](Cc1ccc(O)cc1)C(=O)N[C@@H](CCC(=O)O)C(=O)N[C@@H](CCCCN)C(=O)N1CCC[C@@H]1C(=O)N1C[C@H](N)C[C@H]1C(=O)N[C@@H](Cc1ccc(O)cc1)C(=O)N[C@@H](Cc1c[nH]cn1)C(=O)N[C@@H](CCCCN)C(=O)N2 [compound 83, cyclo(-Tyr-His-Lys-Cys-His-Gly-^DPro-Trp-Thr-IIe-Cys-Tyr-Glu-Lys-^DPro-Pro((4R)NH2)-)] (cyclo(YHKCHG[dP]WTICYEK[dP][Pro(4R-NH2)]); disulfide 4-11)
IC50: 82 ± 51 nM

CC[C@H](C)[C@@H]1NC(=O)[C@H]([C@@H](C)O)NC(=O)[C@H](Cc2c[nH]c3ccccc23)NC(=O)[C@H]2CCCN2C(=O)CNC(=O)[C@H](Cc2c[nH]c3ccccc23)NC(=O)[C@@H]2CSSC[C@H](NC1=O)C(=O)N[C@@H](Cc1ccc(O)cc1)C(=O)N[C@@H](CCC(=O)O)C(=O)N[C@@H](CCCCN)C(=O)N1CCC[C@@H]1C(=O)N[C@@H](CCCCN)C(=O)N[C@@H](Cc1ccc(O)cc1)C(=O)N[C@@H](Cc1c[nH]cn1)C(=O)N[C@@H](CCCCN)C(=O)N2 [compound 87, cyclo(-Tyr-His-Lys-Cys-Trp-Gly-^DPro-Trp-Thr-Ile-Cys-Tyr-Glu-Lys-^DPro-Lys-)] (cyclo(YHKCWG[dP]WTICYEK[dP]K); disulfide 4-11)
IC50: 54 ± 21 nM
